“And” between values parts separate entries of the source, which are not always exact repeats. Identical values can stand only once.
Key:
[1] = test system: Jurkat, SKOV-3 and MESO-1 cells; experiment: Cytotoxicity assay, statements for all tested cell lines together; type: cell-based; conditions: Jurkat, SKOV-3 and MESO-1 cells, 72 h
Method in brief: (§1)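 Incubate 4 h at 37 °C, 5% CO2. Add 2-fold compound dilutions, 0.5% DMSO. After 72 h, read CellTiter-Glo luminescence.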

[2] = Cytotoxicity assay (CellTiter-Glo, 72 h), MESO-1; type: cell-based; conditions: human, MESO-1 malignant pleural mesothelioma cells, raw replicate data, read-out: MESO1 viability (%)
Method in brief: as §1

[3] = test system: malignant pleural mesothelioma MESO-1 cells; experiment: Cytotoxicity assay (CellTiter-Glo, 72 h), MESO-1; type: cell-based; conditions: raw replicate data
Method in brief: as §1

[4] = Cytotoxicity assay (CellTiter-Glo, 72 h), SKOV-3; type: cell-based, human; conditions: human, raw replicate data, read-out: SKOV3 viability (%)
Method in brief: as §1

[5] = test system: human ovarian adenocarcinoma SKOV-3 cells; experiment: Cytotoxicity assay (CellTiter-Glo, 72 h), SKOV-3; type: cell-based; conditions: raw replicate data
Method in brief: as §1

FKBP12 and mTOR = target: T1, FKBP12 and mTOR (Homo sapiens, UniProt P42345+P62942); experiment: Fluoppi analysis: induction of FKBP12-mTOR complex formation in transfected HeLa cells; type: cell-based; conditions: for Foci intensity: raw data, one replicate per line
T1 construct: host or cells: HeLa cells
T1 sequence (P42345 2025-2114 limits assumed): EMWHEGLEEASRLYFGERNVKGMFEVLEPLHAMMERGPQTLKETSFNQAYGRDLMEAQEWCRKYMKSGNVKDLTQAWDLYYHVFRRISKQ
T1 sequence (P62942 whole entry): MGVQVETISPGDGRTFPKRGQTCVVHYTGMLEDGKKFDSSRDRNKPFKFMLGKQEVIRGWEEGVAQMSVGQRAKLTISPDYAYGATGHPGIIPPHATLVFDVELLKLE
Method in brief: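 Complex formation read as fluorescent foci: foci intensity over total per-cell intensity, imaged (×20, 9 fields/well) after fixation and Hoechst stain, giving EC50. Cells: HeLa transiently expressing hAG-mTOR and Ash-FKBP12, exposed to compound concentrations for 1 h at 37 °C.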

COC1CC2CCC(C)C(O)(O2)C(=O)C(=O)N2CCCCC2C(=O)OC(C(C)CC2CCC(O)C(OC)C2)CC(=O)C(C)C=C(C)C(O)CC(=O)C(C)C=C(C)C=CC=CC=C1C (stereo not shown) [Compound 14]
Effect on cell viability, in words [1]: slightly suppressed the cell viabilities
viability at 72 h, 9.53674e-05 uM ([2]; conc 9.53674e-5 uM): 96.6%
viability at 72 h, 0.000190735 uM ([2]; conc 0.000190735 uM): 97.8%
viability at 72 h, 0.00038147 uM ([2]; conc 0.00038147 uM): 94.8%
viability at 72 h, 0.000762939 uM ([2]; conc 0.000762939 uM): 104%
viability at 72 h, 0.00152588 uM ([2]; conc 0.00152588 uM): 102%
viability at 72 h, 0.00305176 uM ([2]; conc 0.00305176 uM): 94.6%
viability at 72 h, 0.00610352 uM ([2]; conc 0.00610352 uM): 95.7%
viability at 72 h, 0.012207 uM ([2]; conc 0.012207 uM): 94.6%
viability at 72 h, 0.0244141 uM ([2]; conc 0.0244141 uM): 94.7%
viability at 72 h, 0.0488281 uM ([2]; conc 0.0488281 uM): 96.1%
viability at 72 h, 0.0976562 uM ([2]; conc 0.0976562 uM): 102%
viability at 72 h, 0.195312 uM ([2]; conc 0.195312 uM): 90.3%
viability at 72 h, 0.390625 uM ([2]; conc 0.390625 uM): 93.7%
viability at 72 h, 0.78125 uM ([2]; conc 0.78125 uM): 79%
viability at 72 h, 1.5625 uM ([2]; conc 1.5625 uM): 79.3%
viability at 72 h, 3.125 uM ([2]; conc 3.125 uM): 75%
viability at 72 h, 6.25 uM ([2]; conc 6.25 uM): 77.6%
viability at 72 h, 12.5 uM ([2]; conc 12.5 uM): 72.5%
viability at 72 h, 25 uM ([2]; conc 25 uM): 74.6%
viability at 72 h, 50 uM ([2]; conc 50 uM): 59.3%
MESO1 viability (%) ([3]; conc 9.53674e-5 uM): 99.4% and 103.8%
MESO1 viability (%) ([3]; conc 0.000190735 uM): 95.6% and 99.1%
MESO1 viability (%) ([3]; conc 0.00038147 uM): 104.7% and 94.5%
MESO1 viability (%) ([3]; conc 0.000762939 uM): 96.5%
MESO1 viability (%) ([3]; conc 0.00152588 uM): 101.1% and 98.7%
MESO1 viability (%) ([3]; conc 0.00305176 uM): 99.6% and 99.1%
MESO1 viability (%) ([3]; conc 0.00610352 uM): 100.1%
MESO1 viability (%) ([3]; conc 0.012207 uM): 95.8% and 96.3%
MESO1 viability (%) ([3]; conc 0.0244141 uM): 100.3% and 106.1%
MESO1 viability (%) ([3]; conc 0.0488281 uM): 100.9% and 99.1%
MESO1 viability (%) ([3]; conc 0.0976562 uM): 96.4% and 97.3%
MESO1 viability (%) ([3]; conc 0.195312 uM): 87.1% and 89.8%
MESO1 viability (%) ([3]; conc 0.390625 uM): 94.1% and 98.7%
MESO1 viability (%) ([3]; conc 0.78125 uM): 79.4% and 79.1%
MESO1 viability (%) ([3]; conc 1.5625 uM): 71.5% and 77.1%
MESO1 viability (%) ([3]; conc 3.125 uM): 73.4% and 72.1%
MESO1 viability (%) ([3]; conc 6.25 uM): 74.3% and 73.5%
MESO1 viability (%) ([3]; conc 12.5 uM): 68.9% and 72.8%
MESO1 viability (%) ([3]; conc 25 uM): 69.4% and 68.8%
MESO1 viability (%) ([3]; conc 50 uM): 60.5% and 62.4%
viability at 72 h, 9.53674e-05 uM ([4]; SKOV-3 cells (ovarian adenocarcinoma), conc 9.53674e-5 uM): 105%
viability at 72 h, 0.000190735 uM ([4]; SKOV-3 cells (ovarian adenocarcinoma), conc 0.000190735 uM): 103%
viability at 72 h, 0.00038147 uM ([4]; SKOV-3 cells (ovarian adenocarcinoma), conc 0.00038147 uM): 104%
viability at 72 h, 0.000762939 uM ([4]; SKOV-3 cells (ovarian adenocarcinoma), conc 0.000762939 uM): 102%
viability at 72 h, 0.00152588 uM ([4]; SKOV-3 cells (ovarian adenocarcinoma), conc 0.00152588 uM): 97.9%
viability at 72 h, 0.00305176 uM ([4]; SKOV-3 cells (ovarian adenocarcinoma), conc 0.00305176 uM): 98%
viability at 72 h, 0.00610352 uM ([4]; SKOV-3 cells (ovarian adenocarcinoma), conc 0.00610352 uM): 103%
viability at 72 h, 0.012207 uM ([4]; SKOV-3 cells (ovarian adenocarcinoma), conc 0.012207 uM): 97.1%
viability at 72 h, 0.0244141 uM ([4]; SKOV-3 cells (ovarian adenocarcinoma), conc 0.0244141 uM): 106%
viability at 72 h, 0.0488281 uM ([4]; SKOV-3 cells (ovarian adenocarcinoma), conc 0.0488281 uM): 100%
viability at 72 h, 0.0976562 uM ([4]; SKOV-3 cells (ovarian adenocarcinoma), conc 0.0976562 uM): 100%
viability at 72 h, 0.195312 uM ([4]; SKOV-3 cells (ovarian adenocarcinoma), conc 0.195312 uM): 97.3%
viability at 72 h, 0.390625 uM ([4]; SKOV-3 cells (ovarian adenocarcinoma), conc 0.390625 uM): 99.4%
viability at 72 h, 12.5 uM ([4]; SKOV-3 cells (ovarian adenocarcinoma), conc 12.5 uM): 81.9%
viability at 72 h, 25 uM ([4]; SKOV-3 cells (ovarian adenocarcinoma), conc 25 uM): 73.7%
viability at 72 h, 50 uM ([4]; SKOV-3 cells (ovarian adenocarcinoma), conc 50 uM): 60.7%
viability at 72 h, 0.78125 uM ([4]; SKOV-3 ovarian adenocarcinoma cells, conc 0.78125 uM): 93.1%
viability at 72 h, 1.5625 uM ([4]; SKOV-3 ovarian adenocarcinoma cells, conc 1.5625 uM): 91.2%
viability at 72 h, 3.125 uM ([4]; SKOV-3 ovarian adenocarcinoma cells, conc 3.125 uM): 84.5%
viability at 72 h, 6.25 uM ([4]; SKOV-3 ovarian adenocarcinoma cells, conc 6.25 uM): 78.2%
SKOV3 viability (%) ([5]; conc 9.53674e-5 uM): 98.4% and 95.5%
SKOV3 viability (%) ([5]; conc 0.000190735 uM): 101.1% and 93.2%
SKOV3 viability (%) ([5]; conc 0.00038147 uM): 101.8% and 98.2%
SKOV3 viability (%) ([5]; conc 0.000762939 uM): 98.4% and 94.2%
SKOV3 viability (%) ([5]; conc 0.00152588 uM): 99.8% and 104.2%
SKOV3 viability (%) ([5]; conc 0.00305176 uM): 98.8% and 92.1%
SKOV3 viability (%) ([5]; conc 0.00610352 uM): 101.4% and 103.8%
SKOV3 viability (%) ([5]; conc 0.012207 uM): 94.0% and 97.4%
SKOV3 viability (%) ([5]; conc 0.0244141 uM): 103.2% and 105.4%
SKOV3 viability (%) ([5]; conc 0.0488281 uM): 98.2% and 100.0%
SKOV3 viability (%) ([5]; conc 0.0976562 uM): 101.8% and 110.3%
SKOV3 viability (%) ([5]; conc 0.195312 uM): 98.6% and 95.1%
SKOV3 viability (%) ([5]; conc 0.390625 uM): 104.4%
SKOV3 viability (%) ([5]; conc 0.78125 uM): 86.0% and 88.0%
SKOV3 viability (%) ([5]; conc 1.5625 uM): 92.8% and 89.9%
SKOV3 viability (%) ([5]; conc 3.125 uM): 80.6% and 76.1%
SKOV3 viability (%) ([5]; conc 6.25 uM): 79.5%
SKOV3 viability (%) ([5]; conc 12.5 uM): 67.2% and 69.9%
SKOV3 viability (%) ([5]; conc 25 uM): 77.7% and 72.7%
SKOV3 viability (%) ([5]; conc 50 uM): 51.8% and 56.0%
PPI-inducing (binding enhancing) activity between FKBP12 and mTOR compared with rapamycin (1), in words (FKBP12 and mTOR; Fluoppi): much less potent than 1
EC50 (FKBP12 and mTOR; Fluoppi, HeLa cells, 1 h treatment, three independent biological replicates, read-out: EC50, induction of the formation of FKBP-mTOR complex): 2130 nM
Foci intensity (FKBP12 and mTOR; conc 9.53674e-5 uM): 0.01583 and 0.01285 and 0.01813
Foci intensity (FKBP12 and mTOR; conc 0.000190735 uM): 0.02463 and 0.01296 and 0.02679
Foci intensity (FKBP12 and mTOR; conc 0.00038147 uM): 0.01747 and 0.03336 and 0.009483
Foci intensity (FKBP12 and mTOR; conc 0.000762939 uM): 0.01101 and 0.009441 and 0.01241
Foci intensity (FKBP12 and mTOR; conc 0.00152588 uM): 0.01354 and 0.009078 and 0.03888
Foci intensity (FKBP12 and mTOR; conc 0.00305176 uM): 0.02172 and 0.01712 and 0.01571
Foci intensity (FKBP12 and mTOR; conc 0.00610352 uM): 0.01274 and 0.01148 and 0.02185
Foci intensity (FKBP12 and mTOR; conc 0.012207 uM): 0.01853 and 0.03131 and 0.01125
Foci intensity (FKBP12 and mTOR; conc 0.0244141 uM): 0.04 and 0.01743 and 0.009054
Foci intensity (FKBP12 and mTOR; conc 0.0488281 uM): 0.01856 and 0.02257 and 0.02853
Foci intensity (FKBP12 and mTOR; conc 0.0976562 uM): 0.02191 and 0.01721 and 0.01479
Foci intensity (FKBP12 and mTOR; conc 0.195312 uM): 0.01663 and 0.02497 and 0.01905
Foci intensity (FKBP12 and mTOR; conc 0.390625 uM): 0.01986 and 0.02708 and 0.02914
Foci intensity (FKBP12 and mTOR; conc 0.78125 uM): 0.02045 and 0.02304 and 0.03319
Foci intensity (FKBP12 and mTOR; conc 1.5625 uM): 0.09025 and 0.08153 and 0.07652
Foci intensity (FKBP12 and mTOR; conc 3.125 uM): 0.2188 and 0.1724 and 0.1954
Foci intensity (FKBP12 and mTOR; conc 6.25 uM): 0.2549 and 0.2832 and 0.2819
Foci intensity (FKBP12 and mTOR; conc 12.5 uM): 0.2175 and 0.1877 and 0.2688
Foci intensity (FKBP12 and mTOR; conc 25 uM): 0.2553 and 0.272 and 0.2457
Foci intensity (FKBP12 and mTOR; conc 50 uM): 0.2721 and 0.2164 and 0.2636

— publication PMC7419507, “In vitro Cas9-assisted editing of modular polyketide synthase genes to produce desired natural product derivatives” (Nature Communications, 2020)
